The record followed here is patent publication US7888380B2, “1,2,4-Triazolylaminoaryl (heteroaryl) sulfonamide derivatives” (Janssen Pharmaceutica, N.V., priority 2004, dated 2011).

In one data set the target is T1, VEGF-R2 kinase (Rattus norvegicus, UniProt O08775).
T1 construct: 6xHis (polyhistidine) (N)
Kind of data set: VEGF-R2 Kinase Screening Assay. The settings on record: 10 μM ATP; rat VEGF-R2 kinase domain; read-out: IC50 (μM) VEGFR. In kind it is biochemical. As for the experimental part:
A kinase reaction mixture was prepared containing 50 mM Tris-HCl pH=8, 10 mM MgCl2, 0.1 mM Na3PO4, 1 mM DTT, 10 μM ATP, 0.025 μM biotinylated peptide substrate and 0.8 μCuries per well ^33P-γ-ATP (2000-3000 Ci/mmol). 70 μL of the kinase reaction mixture was dispensed into each well of a streptavidin coated FlashPlate™ (Cat. # SMP103, NEN, Boston, Mass.). Then 1 μL of test compound stock in 100% DMSO was added to the wells resulting in a final concentration of 1% DMSO in the reaction with a 100 μL final reaction volume. Next, soluble rat tyrosine kinase containing an N-terminal 6×HIS tag was diluted in 50 mM Tris-HCl pH=8.0, 0.1% BSA at a concentration of 5 ng per μL and 30 μL (150 ng enzyme per test well) was added to each well to initiate the reaction. The reaction was incubated for one hour at 30° C. At the end of the 1 h incubation, the reaction was terminated by aspirating the reaction mixture from the plate and washing the wells twice with PBS containing 100 mM EDTA. The PLC1 biotinylated peptide substrate became immobilized on the Flashplate™ and the incorporation of ^33P-γ-ATP was measured by reading the plate on a scintillation counter. Inhibition of the enzymatic activity of the VEGF-R2 kinase was measured by observing a reduced amount of ^33P-γ-ATP incorporated into the immobilized peptide.
VEGF-R (vascular endothelial growth factor receptor-2) is a fusion protein containing a polyhistidine tag at the N-terminus followed by amino acids 786-1343 of the rat VEGF-R2 kinase domain (GenBank Accession #U93306). CDK1 (cyclin dependent kinase 1) was isolated from insect cells expressing both the human CDK1 catalytic subunit and its positive regulatory subunit cyclin B (New England Biolabs, Beverly, Mass., Cat. # 6020). CDK2 in complex with cyclin A is commercially available (Upstate Biotech, Lake Placid, N.Y.). The HER2 (human epidermal growth factor receptor-2) construct contains a polyhistidine tag at the N-terminus followed by 24 additional amino acids and begins at amino acid 676 followed by the remainder of the HER2 cytoplasmic domain.

Data set [1] is described as follows: Standard Rat Pharmacokinetics (PK). It is filed as in vivo. Conditions: for Cmax: rat plasma; for bioavailability: plasma. As for the experimental part:
The conversion of prodrug to active form was evaluated using a standard rat PK protocol. The following procedure may be followed.
Rats were dosed intravenously (IV) at the level of 1.5-3 mg/kg and by oral gavage (PO) at the level of 10-30 mg/kg with prodrug candidate. For each study, four rats were used for IV dosing and four rats were used for PO dosing. Prodrug was typically formulated for IV dosing as a solution in 10% W/V solutol in 5% dextrose in sterile water vehicle (D5W). Prodrug was typically formulated for oral dosing as a uniform suspension in 0.5% methylcellulose vehicle. Blood samples (0.5 mL) were collected into heparinized tubes post dose via orbital sinus puncture. For IV dosing, blood samples were collected at 5, 15 and 30 mins, 1, 2, 4, 6, 8, and 24 hrs after the dosing. For PO dosing, blood samples were collected at 30 mins, 1, 2, 4, 6, 8 and 24 hrs. Blood samples were centrifuged for cell removal, and precisely 200 μL of plasma supernatant was then transferred to a clean vial, placed on dry ice, and subsequently stored in a −70° C. freezer prior to analysis. Results were calculated by WinNonlin Pro version 3.1. Plasma levels were determined and the oral and intravenous area under the concentration vs. time curve (AUC) were compared to determine the % bioavailability (% F) by the following formula: Dose(IV)*AUC(oral)/Dose (oral)*AUC(IV).

The mark [2] stands for this setting: IV 3 mg/kg of prodrug, read-out: Prodrug Cmax (μM) IV.
Setting [3] is: PO 30 mg/kg of prodrug, read-out: Prodrug Cmax (μM) PO.
Where [4] appears, read: rat, IV/PO 3/30 mg/kg, Dose(IV)*AUC(oral)/Dose(oral)*AUC(IV).

Like-named read-outs stand apart in the source and are kept apart here.

T1 sequence (O08775 786-1343): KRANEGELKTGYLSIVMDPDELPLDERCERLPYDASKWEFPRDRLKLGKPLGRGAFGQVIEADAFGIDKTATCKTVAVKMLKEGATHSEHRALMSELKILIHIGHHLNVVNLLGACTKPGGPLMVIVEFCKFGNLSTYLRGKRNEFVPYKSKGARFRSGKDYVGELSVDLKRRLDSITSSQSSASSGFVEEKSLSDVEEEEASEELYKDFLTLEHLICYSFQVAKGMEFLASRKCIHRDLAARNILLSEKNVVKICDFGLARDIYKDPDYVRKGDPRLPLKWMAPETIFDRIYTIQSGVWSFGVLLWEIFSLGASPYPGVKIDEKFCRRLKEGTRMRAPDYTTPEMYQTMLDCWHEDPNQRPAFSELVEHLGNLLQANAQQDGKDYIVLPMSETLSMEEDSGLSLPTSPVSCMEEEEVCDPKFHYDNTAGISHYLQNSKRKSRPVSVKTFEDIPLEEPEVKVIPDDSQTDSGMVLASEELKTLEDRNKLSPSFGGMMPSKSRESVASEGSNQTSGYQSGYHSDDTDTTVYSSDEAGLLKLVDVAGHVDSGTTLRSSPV

The term IC50 denotes the concentration at which inhibition is half-maximal. Usually Cmax stands for the peak of the concentration-time curve. With “4-[5-amino-1-(2,6-difluoro-benzoyl)-1H-[1,2,4]triazol-3-ylamino]-N-propionyl-benzenesulfonamide [Compound 20]”, the half-maximal inhibitory concentration (IC50) on VEGF-R2 kinase came to 1 µM. Also, the Cmax was 33.5 µM in data set [1] (setting [2]) and 0.02 µM in data set [1] (setting [3]). In addition, the “% F” value in data set [1] (setting [4]) amounted to 0.34%.

As a reminder, the bioavailability is the share of a dose that reaches the circulation, judged against a reference dose that is usually intravenous. For `Nc1nc(Nc2ccc(S(=O)(=O)NC(=O)CCC(=O)O)cc2)nn1C(=O)c1c(F)cccc1F` [Compound 1, 4-{4-[5-amino-1-(2,6-difluoro-benzoyl)-1H-[1,2,4]triazol-3-ylamino]-benzenesulfonylamino}-4-oxo-butyric acid], the IC50 at VEGF-R2 kinase was determined as 1.66 µM. The molecule also had a bioavailability in data set [1] (setting [4]) of 1%. For the same molecule, the Cmax in data set [1] (setting [2]) stood at 47 µM; in data set [1] (setting [3]), 0.36 µM.

`NCC(=O)NS(=O)(=O)c1ccc(Nc2nc(N)n(C(=O)c3c(F)cccc3F)n2)cc1` [Compound 2, N-(2-amino-acetyl)-4-[5-amino-1-(2,6-difluoro-benzoyl)-1H-[1,2,4]triazol-3-ylamino]-benzenesulfonamide]: the IC50 at VEGF-R2 kinase turned out to be 1.97 µM. The bioavailability in data set [1] (rat, IV/PO 1.5/15 mg/kg, Dose(IV)*AUC(oral)/Dose(oral)*AUC(IV)) stood at 0%. For the same molecule, the Cmax in data set [1] (IV 1.5 mg/kg of prodrug, read-out: Prodrug Cmax (μM) IV) stood at 11.8 µM.

As to `COCCOCC(=O)NS(=O)(=O)c1ccc(Nc2nc(N)n(C(=O)c3c(F)cccc3F)n2)cc1` [Compound 3, 4-[5-amino-1-(2,6-difluoro-benzoyl)-1H-[1,2,4]triazol-3-ylamino]-N-[2-(2-methoxy-ethoxy)-acetyl]-benzenesulfonamide], the IC50 on VEGF-R2 kinase was 2.56 µM. In addition, in data set [1] (setting [4]), the bioavailability came to 2%. Further, the Cmax in data set [1] (setting [2]) was 42.9 µM; in data set [1] (setting [3]) it was 0.32 µM.

`Nc1nc(Nc2ccc(S(=O)(=O)NC(=O)Cn3cnnn3)cc2)nn1C(=O)c1c(F)cccc1F` [Compound 4, 4-[5-amino-1-(2,6-difluoro-benzoyl)-1H-[1,2,4]triazol-3-ylamino]-N-(2-tetrazol-1-yl-acetyl)-benzenesulfonamide]: the half-maximal inhibitory concentration (IC50) at VEGF-R2 kinase was 2.34 µM. For the same molecule, the bioavailability in data set [1] (setting [4]) stood at 0%. For the same molecule, the highest concentration (Cmax) in data set [1] (setting [2]) was determined as 23.5 µM.

For the molecule `CN1CCN(CCC(=O)NS(=O)(=O)c2ccc(Nc3nc(N)n(C(=O)c4c(F)cccc4F)n3)cc2)CC1` [Compound 5, 4-[5-amino-1-(2,6-difluoro-benzoyl)-1H-[1,2,4]triazol-3-ylamino]-N-[3-(4-methyl-piperazin-1-yl)-propionyl]-benzenesulfonamide], the half-maximal inhibitory concentration (IC50) on VEGF-R2 kinase was determined as 1.88 µM. Besides, the bioavailability in data set [1] (rat, IV/PO 1.7/17 mg/kg, Dose(IV)*AUC(oral)/Dose(oral)*AUC(IV)) amounted to 0%. In data set [1] (IV 1.7 mg/kg of prodrug, read-out: Prodrug Cmax (μM) IV), the Cmax came out at 23.2 µM.

As for `CN(C)CC(=O)NS(=O)(=O)c1ccc(Nc2nc(N)n(C(=O)c3c(F)cccc3F)n2)cc1` [Compound 6, 4-[5-amino-1-(2,6-difluoro-benzoyl)-1H-[1,2,4]triazol-3-ylamino]-N-(2-dimethylamino-acetyl)-benzenesulfonamide], the IC50 at VEGF-R2 kinase came out at 1.22 µM. For the same molecule, the bioavailability in data set [1] (setting [4]) was found to be 0%. The Cmax in data set [1] (setting [2]) is 25.2 µM.

As to `Nc1nc(Nc2ccc(S(=O)(=O)NC(=O)CCN3CCOCC3)cc2)nn1C(=O)c1c(F)cccc1F` [Compound 7, 4-[5-amino-1-(2,6-difluoro-benzoyl)-1H-[1,2,4]triazol-3-ylamino]-N-(3-morpholin-4-yl-propionyl)-benzenesulfonamide], at VEGF-R2 kinase, the concentration for half-maximal inhibition (IC50) was 1.65 µM. In addition, the bioavailability in data set [1] (setting [4]) was found to be 0%. In addition, in data set [1] (setting [2]), the highest concentration (Cmax) turned out to be 20.5 µM.

Consider `CCOC(=O)CCC(=O)NS(=O)(=O)c1ccc(Nc2nc(N)n(C(=O)c3c(F)cccc3F)n2)cc1` [Compound 8, 4-{4-[5-amino-1-(2,6-difluoro-benzoyl)-1H-[1,2,4]triazol-3-ylamino]-benzenesulfonylamino}-4-oxo-butyric acid ethyl ester], for which the concentration for half-maximal inhibition (IC50) on VEGF-R2 kinase was determined as 0.47 µM. This molecule also registered a bioavailability in data set [1] (setting [4]) of 0.17%. Moreover, the figures for the Cmax in data set [1] (setting [2]) and in data set [1] (setting [3]) were 72.2 µM and 0.19 µM, respectively.
